From patent US12544373B2, “Treatment of cancer, inflammatory diseases and autoimmune diseases” (Usher III Initiative, Inc., priority 2020, dated 2026)
Like-named read-outs stand apart in the source and are kept apart here.

Columns and labels:
Format in all cases: cell-based, human
[1] = system: SXFS 1301; assay: CellTiter-Blue Cell Viability Assay (Example 2), soft tissue sarcoma; settings: for T/C %: 72 h
Description: (§1) The CellTiter-Blue® Cell Viability Assay was used to assess the viability of cells from various cancer cell lines, in the presence or absence of Compound 85 (at different concentrations). This assay provides a homogeneous, fluorometric method for estimating the number of viable cells present in multi-well plates. Viable cells retain the ability to reduce resazurin to resorufin, which is highly fluorescent. […] The fluorescence produced is proportional to the number of viable cells. There is a linear relationship between cell number and fluorescence.
(§2) Cancer cells (see Table 6) were harvested from exponential phase cultures, counted and plated in 96 well flat-bottom microtiter plates, at a cell density 6,000-20,000 cells/well, depending on the cell line's growth rate. The culture medium was supplemented with 10% (v/v) foetal calf serum and 50 μg/mL gentamicin (140 μL/well). Cultures were incubated at 37° C. and 5% CO2 in a humidified atmosphere.
(§3) Compound 85 was serially diluted in DMSO, and five Compound 85 concentrations in half-log increments were used: 0.03 μM, 0.09 μM, 0.30 μM, 1.0 μM, and 3.0 μM. After 24 h, 10 μL of Compound 85 (dissolved in DMSO) or control (DMSO) medium were added, in duplicates, and left on the cells for another 72 h. Compound 85 solutions were added to the assay plates using a Tecan Freedom EVO 200 robotic platform. The DMSO concentration was kept constant at 0.3% v/v across the assay plate.
(§4) After incubation of up to 72 hours, fluorescence (FU) was measured using the EnSpire® multimode plate reader (Perkin Elmer) (excitation λ=570 nm, emission λ=600 nm).
(§5) Cancer cell lines used: Compound 85's anti-cancer effect was tested in 20 human cancer-cell lines representing nine cancer types (Table 6).
(§6) The percentage of viable cells in the presence of Compound 85 (Test condition, T), at different concentrations, are presented in Table 7 and expressed as a percentage of the number of viable cells in the presence of DMSO without Compound 85 (Control condition, C).
(§7) The relative IC50 is determined as the Compound 85 concentration giving a response halfway between the maximum cell viability signal (i.e., a 100% cell viability, no Compound 85 response) and the minimal viability signal (i.e. maximum cell viability inhibition achieved by Compound 85), in a sigmoidal concentration-effect curve.
(§8) The absolute IC50 is determined as the concentration that is associated with a T/C ratio of 50%.

[2] = system: SXFS Hs 729; assay: as above; settings: for T/C %: 72 h
Description: as §1, §2, §3, §4, §5, §6, §7, §8

[3] = system: SXFO Saos-2; assay: CellTiter-Blue Cell Viability Assay (Example 2), osteosarcoma; settings: for T/C %: 72 h
Description: as §1, §2, §3, §4, §5, §6, §7, §8

[4] = system: SXFO 678; assay: as above; settings: for T/C %: 72 h
Description: as §1, §2, §3, §4, §5, §6, §7, §8

[5] = system: CXF HCC-2998; assay: CellTiter-Blue 2D monolayer assay (Example 1), colon; settings: for Test/Control (%): 72 h
Description: (§9) Compound 85 was assessed in 10 human tumor cell lines (see Table 3) for anti-cancer activity in vitro using a CellTiter-Blue® based 2D monolayer assay.
(§10) CellTiter-Blue® Cell Viability Assay: Tumor cells were grown at 37° C. in a humidified atmosphere with 5% CO2 in RPMI medium, supplemented with 10% (v/v) fetal calf serum and 50 μg/ml gentamicin (140 μl/well). Cultures were incubated at 37° C. and 5% CO2 in a humidified atmosphere. After 24 hours, 10 μl of Compound 85 was added, and left on the cells for another 72 hours (incubation period). Compound 85 was tested at 5 concentrations (0.003 μM, 0.03 μM, 0.3 μM, 3 μM, and 30 μM) and serially diluted in DMSO, mixed with cell culture medium, and added to the assay plates by using a Tecan Freedom EVO 200 robotic platform. The DMSO concentration was kept constant at 0.3% yip across the assay plate. Every 96 well plate included six DMSO-treated control wells and Compound 85-treated wells in duplicate at 5 concentrations. Viability of cells was quantified using the CellTiter-Blue® cell viability assay (Promega G8081). After incubation of cells, the CellTiter-Blue® reagent was brought to ambient temperature. Next, 20 μl of CellTiter-Blue® reagent were added to each well. After incubation tier up to 4 hours, fluorescence (FU) was measured using the EnSpire® multimode plate reader (Perkin Elmer) ([…]).
(§11) Data Evaluation: Sigmoidal concentration-response curves were fitted to the data points (test-versus-control; T/C values) obtained for each tumor model using 4 parameter non-linear curve fit (Charles River DRS Datawarehouse Software). Drug effects are expressed in terms of the percentage of the fluorescence signal, obtained by comparison of the mean signal in the treated wells with the mean signal of the untreated controls (T/C-value [%]) (Table 4). IC50 and IC70 values were reported as relative and absolute IC50 and IC70 values (Table 5). The absolute IC50 and IC70 values reflect the concentration of Compound 85 that achieves T/C=50% and T/C=30%, respectively. The relative IC50 value is the concentration of Compound 85 that gives a response half way between the top and bottom plateau of the sigmoidal concentration-response curve (inflection point of the curve).

[6] = system: CXF LS 174T; assay: as above; settings: for Test/Control (%): 72 h
Description: as §9, §10, §11

For `CC(C)(O)Cn1nc(-c2ccccc2)c2c(Cl)c(-c3ccccc3)nnc21` [Compound 85], the “Absolute IC70” value [1] was 570 nM, the “Relative IC70” value [1] was 558 nM and the T/C % ([1]; 0.03 μM) was 105%. It also gave a T/C % ([1]; 0.095 μM) of 106%, a T/C % ([1]; 0.3 μM) of 102% and a T/C % ([1]; 0.95 μM) of 3%. For the same compound, the T/C % ([1]; 3.0 μM) was 2%, the IC50 ([1]; read-out: Absolute IC50) was 501 nM and the IC50 ([1]; read-out: Relative IC50) was 490 nM. For the same compound, the “Absolute IC70” value [2] was 808 nM, the “Relative IC70” value [2] was 789 nM and the T/C % ([2]; 0.03 μM) was 99%. For the same compound, the T/C % ([2]; 0.095 μM) was 99%, the T/C % ([2]; 0.3 μM) was 99% and the T/C % ([2]; 0.95 μM) was 13%. It also gave a T/C % ([2]; 3.0 μM) of 7%, an IC50 ([2]; read-out: Absolute IC50) of 733 nM and an IC50 ([2]; read-out: Relative IC50) of 724 nM. The “Absolute IC70” value [3] was 747 nM, the “Relative IC70” value [3] was 750 nM and the T/C % ([3]; 0.03 μM) was 97%. For the same compound, the T/C % ([3]; 0.095 μM) was 93%, the T/C % ([3]; 0.3 μM) was 99% and the T/C % ([3]; 0.95 μM) was 1%. The T/C % ([3]; 3.0 μM) was 0%, the IC50 ([3]; read-out: Absolute IC50) was 709 nM and the IC50 ([3]; read-out: Relative IC50) was 712 nM. The “Absolute IC70” value [4] was 532 nM, the “Relative IC70” value [4] was 531 nM and the T/C % ([4]; 0.03 μM) was 101%. For the same compound, the T/C % ([4]; 0.095 μM) was 97%, the T/C % ([4]; 0.3 μM) was 91% and the T/C % ([4]; 0.95 μM) was 2%. It also gave a T/C % ([4]; 3.0 μM) of 1%, an IC50 ([4]; read-out: Absolute IC50) of 458 nM and an IC50 ([4]; read-out: Relative IC50) of 458 nM. The “Rel. IC70” value [5] was 1630 nM, the “Test/Control (%)” value ([5]; 0.003 μM) was 97% and the “Test/Control (%)” value ([5]; 0.03 μM) was 100%. For the same compound, the “Test/Control (%)” value ([5]; 0.3 μM) was 90%, the “Test/Control (%)” value ([5]; 3 μM) was 13% and the “Test/Control (%)” value ([5]; 30 μM) was 1%. For the same compound, the “Abs. IC70” value ([5]; T/C=30%) was 1628 nM, the IC50 ([5]; T/C=50%, read-out: Abs. IC50) was 1020 nM and the “Bot. (%)” value ([5]; bottom plateau of curve) was 1%. The IC50 ([5]; read-out: Rel. IC50) was 1030 nM, the “Top (%)” value ([5]; top plateau of curve) was 99% and the “Rel. IC70” value [6] was 328 nM. The “Test/Control (%)” value ([6]; 0.003 μM) was 103%, the “Test/Control (%)” value ([6]; 0.03 μM) was 101% and the “Test/Control (%)” value ([6]; 0.3 μM) was 35%. The “Test/Control (%)” value ([6]; 3 μM) was 4%, the “Test/Control (%)” value ([6]; 30 μM) was 0% and the “Abs. IC70” value ([6]; T/C=30%) was 346 nM. For the same compound, the IC50 ([6]; T/C=50%, read-out: Abs. IC50) was 215 nM, the “Bot. (%)” value ([6]; bottom plateau of curve) was 1% and the IC50 ([6]; read-out: Rel. IC50) was 204 nM. For the same compound, the “Top (%)” value ([6]; top plateau of curve) was 103%.
